Measured values from patent publication US12054494B2, “Compound with anticancer activity” (KYOWA KIRIN CO., LTD., priority 2018, dated 2024).
Where a name gives a salt, the structure may show the parent alone.

system: SU-DHL-4 cells; assay: Inhibitory effect on cell viability (Cell Counting Kit-8); format: cell-based; details: Homo sapiens, 72 hours culture with test compound, concentration showing 90% inhibition rate of cell viability
Outline: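 SU-DHL-4 cells (2000/well, RPMI1640 with 10% FBS) precultured 18-25 h, then exposed to a 9-step compound dilution series (0.1% DMSO final) for 72 h at 37° C. Viability by CCK-8 absorbance at 450 nm after 2-3 h; IC90 computed from inhibition rate relative to untreated and cell-free wells.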

Row | SMILES | IC90
1 | CCC(=O)N1c2ccccc2[C@H](Nc2ccc(C(=O)N3CCn4c(-c5ccc(N[C@@H]6C[C@H](C)N(C(=O)CC)c7ccccc76)cc5)cnc4C3)cc2)C[C@@H]1C [Compound 3e, 1-[(2S,4R)-2-Methyl-4-({4-[3-(4-{[(2S,4R)-2-methyl-1-propionyl-1,2,3,4-tetrahydroquinolin-4-yl]amino}phenyl)-5,6,7,8-tetrahydroimidazo[1,2-a]pyrazine-7-carbonyl]phenyl}amino)-3,4-dihydroquinolin-1(2H)-yl]propan-1-one] | 0.12 nM
2 | CCC(=O)N1c2ccccc2[C@H](Nc2ccc(C(=O)N3CCn4cc(-c5ccc(N[C@@H]6C[C@H](C)N(C(=O)CC)c7ccccc76)cc5)nc4C3)cc2)C[C@@H]1C [Compound 3f, 1-[(2S,4R)-2-Methyl-4-({4-[2-(4-{[(2S,4R)-2-methyl-1-propionyl-1,2,3,4-tetrahydroquinolin-4-yl]amino}phenyl)-5,6,7,8-tetrahydroimidazo[1,2-a]pyrazine-7-carbonyl]phenyl}amino)-3,4-dihydroquinolin-1(2H)-yl]propan-1-one] | 0.33 nM
3 | CCC(=O)N1c2ccccc2[C@H](Nc2ccc(SCCNC(=O)c3ccc(N[C@@H]4C[C@H](C)N(C(=O)CC)c5ccccc54)cc3)cc2)C[C@@H]1C [Compound 4f, 4-{[(2S,4R)-2-Methyl-1-propionyl-1,2,3,4-tetrahydroquinolin-4-yl]amino}-N-{2-[(4-{[(2S,4R)-2-methyl-1-propionyl-1,2,3,4-tetrahydroquinolin-4-yl]amino}phenyl)thio]ethyl}benzamide] | 1.19 nM
4 | CCC(=O)N1c2ccccc2[C@H](Nc2ccc(NC(=O)c3coc(Nc4ccc(N[C@@H]5C[C@H](C)N(C(=O)CC)c6ccccc65)cc4)n3)cc2)C[C@@H]1C [Compound 5a, N-(4-(((2S,4R)-2-Methyl-1-propionyl-1,2,3,4-tetrahydroquinolin-4-yl)amino)phenyl)-2-((4-(((2S,4R)-2-methyl-1-propionyl-1,2,3,4-tetrahydroquinolin-4-yl)amino)phenyl)amino)oxazole-4-carboxamide] | 2.15 nM
5 | CCC(=O)N1c2ccccc2[C@H](Nc2ccc(CN3CCn4cc(-c5ccc(N[C@@H]6C[C@H](C)N(C(=O)CC)c7ccccc76)cc5)nc4C3)cc2)C[C@@H]1C [Compound 5b, 1-((2S,4R)-2-Methyl-4-((4-((2-(4-(((2S,4R)-2-methyl-1-propionyl-1,2,3,4-tetrahydroquinolin-4-yl)amino)phenyl)-5,6-dihydroimidazo[1,2-a]pyrazin-7(8H)-yl)methyl)phenyl)amino)-3,4-dihydroquinolin-1(2H)-yl)propan-1-one] | 39.6 nM
6 | CCC(=O)N1c2ccccc2[C@H](Nc2ccc(Cc3cnc4n3CCN(Cc3ccc(N[C@@H]5C[C@H](C)N(C(=O)CC)c6ccccc65)cc3)C4)cc2)C[C@@H]1C [Compound 5c, 1,1′-((2S,2′S,4R,4′R)-((((5,6-Dihydroimidazo[1,2-a]pyrazine-3,7(8H)-diyl)bis(methylene))bis(4,1-phenylene))bis(azanediyl))bis(2-methyl-3,4-dihydroquinoline-4,1(2H)-diyl))bis(propan-1-one)] | 63.6 nM
7 | CCC(=O)N1c2ccccc2[C@H](Nc2ccc(NC(=O)CNCC(=O)Nc3ccc(N[C@@H]4C[C@H](C)N(C(=O)CC)c5ccccc54)cc3)cc2)C[C@@H]1C [Compound 5d, 2,2′-Azanediylbis(N-(4-(((2S,4R)-2-methyl-1-propionyl-1,2,3,4-tetrahydroquinolin-4-yl)amino)phenyl)acetamide)] | 0.67 nM
8 | CCC(=O)N1c2ccccc2[C@H](Nc2ccc(CNC3CN(C(=O)c4ccc(N[C@@H]5C[C@H](C)N(C(=O)CC)c6ccccc65)cc4)C3)cc2)C[C@@H]1C [Compound 5e, 1-((2S,4R)-2-Methyl-4-((4-(((1-(4-(((2S,4R)-2-methyl-1-propionyl-1,2,3,4-tetrahydroquinolin-4-yl)amino)benzoyl)azetidin-3-yl)amino)methyl)phenyl)amino)-3,4-dihydroquinolin-1(2H)-yl)propan-1-one] | 5.93 nM
9 | CCC(=O)N1c2ccccc2[C@H](Nc2ccc(CNCCn3cc(-c4ccc(N[C@@H]5C[C@H](C)N(C(=O)CC)c6ccccc65)cc4)cn3)cc2)C[C@@H]1C [Compound 5f, 1-((2S,4R)-2-Methyl-4-((4-(((2-(4-(4-(((2S,4R)-2-methyl-1-propionyl-1,2,3,4-tetrahydroquinolin-4-yl)amino)phenyl)-1H-pyrazol-1-yl)ethyl)amino)methyl)phenyl)amino)-3,4-dihydroquinolin-1(2H)-yl)propan-1-one] | 24.7 nM
10 | CCC(=O)N1c2ccccc2[C@H](Nc2ccc(CNCc3nnc(-c4ccc(N[C@@H]5C[C@H](C)N(C(=O)CC)c6ccccc65)cc4)o3)cc2)C[C@@H]1C [Compound 5g, 1-((2S,4R)-2-Methyl-4-((4-((((5-(4-(((2S,4R)-2-methyl-1-propionyl-1,2,3,4-tetrahydroquinolin-4-yl)amino)phenyl)-1,3,4-oxadiazol-2-yl)methyl)amino)methyl)phenyl)amino)-3,4-dihydroquinolin-1(2H)-yl)propan-1-one] | 2.53 nM
11 | CCC(=O)N1c2ccccc2[C@H](Nc2ccc(CNCc3cn(-c4ccc(N[C@@H]5C[C@H](C)N(C(=O)CC)c6ccccc65)cc4)nn3)cc2)C[C@@H]1C [Compound 5h, 1-((2S,4R)-2-Methyl-4-((4-((((1-(4-(((2S,4R)-2-methyl-1-propionyl-1,2,3,4-tetrahydroquinolin-4-yl)amino)phenyl)-1H-1,2,3-triazol-4-yl)methyl)amino)methyl)phenyl)amino)-3,4-dihydroquinolin-1(2H)-yl)propan-1-one] | 0.12 nM
12 | CCC(=O)N1c2ccccc2[C@H](Nc2ccc(CNCC(=O)Nc3ccc(N[C@@H]4C[C@H](C)N(C(=O)CC)c5ccccc54)cc3)cc2)C[C@@H]1C [Compound 5i, 2-((4-(((2S,4R)-2-Methyl-1-propionyl-1,2,3,4-tetrahydroquinolin-4-yl)amino)benzyl)amino)-N-(4-(((2S,4R)-2-methyl-1-propionyl-1,2,3,4-tetrahydroquinolin-4-yl)amino)phenyl)acetamide hydrochloride] | 4.49 nM
13 | CCC(=O)N1c2ccccc2[C@H](Nc2ccc(NC(=O)CN3CC=C(c4ccc(N[C@@H]5C[C@H](C)N(C(=O)CC)c6ccccc65)cc4)CC3)cc2)C[C@@H]1C [Compound 5k, N-(4-(((2S,4R)-2-Methyl-1-propionyl-1,2,3,4-tetrahydroquinolin-4-yl)amino)phenyl)-2-(4-(4-(((2S,4R)-2-methyl-1-propionyl-1,2,3,4-tetrahydroquinolin-4-yl)amino)phenyl)-3,6-dihydropyridin-1(2H)-yl)acetamide] | 7.48 nM
14 | CCC(=O)N1c2ccccc2[C@H](Nc2ccc(NC(=O)CCS(=O)(=O)c3ccc(N[C@@H]4C[C@H](C)N(C(=O)CC)c5ccccc54)cc3)cc2)C[C@@H]1C [Compound 5l, N-(4-(((2S,4R)-2-Methyl-1-propionyl-1,2,3,4-tetrahydroquinolin-4-yl)amino)phenyl)-3-((4-(((2S,4R)-2-methyl-1-propionyl-1,2,3,4-tetrahydroquinolin-4-yl)amino)phenyl)sulfonyl)propanamide] | 37 nM
15 | CCC(=O)N1c2ccccc2[C@H](Nc2ccc(NC(=O)CC[S+]([O-])c3ccc(N[C@@H]4C[C@H](C)N(C(=O)CC)c5ccccc54)cc3)cc2)C[C@@H]1C (stereo partly drawn) [Compound 5m, N-(4-(((2S,4R)-2-Methyl-1-propionyl-1,2,3,4-tetrahydroquinolin-4-yl)amino)phenyl)-3-((4-(((2S,4R)-2-methyl-1-propionyl-1,2,3,4-tetrahydroquinolin-4-yl)amino)phenyl)sulfinyl)propanamide] | 0.59 nM
16 | CCC(=O)N1c2ccccc2[C@H](Nc2ccc(OCCNC(=O)c3ccc(N[C@@H]4C[C@H](C)N(C(=O)CC)c5ccccc54)cc3)cc2)C[C@@H]1C [Compound 5n, 4-(((2S,4R)-2-Methyl-1-propionyl-1,2,3,4-tetrahydroquinolin-4-yl)amino)-N-(2-(4-(((2S,4R)-2-methyl-1-propionyl-1,2,3,4-tetrahydroquinolin-4-yl)amino)phenoxy)ethyl)benzamide] | 8.83 nM
17 | CCC(=O)N1c2ccccc2[C@H](Nc2ccc(NC(=O)COCC(=O)Nc3ccc(N[C@@H]4C[C@H](C)N(C(=O)CC)c5ccccc54)cc3)cc2)C[C@@H]1C [Compound 5o, 2,2′-Oxybis(N-(4-(((2S,4R)-2-methyl-1-propionyl-1,2,3,4-tetrahydroquinolin-4-yl)amino)phenyl)acetamide)] | 0.14 nM
18 | CCC(=O)N1c2ccccc2[C@H](Nc2ccc(OCCCNC(=O)c3ccc(N[C@@H]4C[C@H](C)N(C(=O)CC)c5ccccc54)cc3)cc2)C[C@@H]1C [Compound 5p, 4-(((2S,4R)-2-Methyl-1-propionyl-1,2,3,4-tetrahydroquinolin-4-yl)amino)-N-(3-(4-(((2S,4R)-2-methyl-1-propionyl-1,2,3,4-tetrahydroquinolin-4-yl)amino)phenoxy)propyl)benzamide] | 2.68 nM
19 | CCC(=O)N1c2ccccc2[C@H](Nc2ccc(Cc3cnc4n3CCN(C(=O)c3ccc(N[C@@H]5C[C@H](C)N(C(=O)CC)c6ccccc65)cc3)C4)cc2)C[C@@H]1C [Compound 5q, 1-((2S,4R)-2-Methyl-4-((4-((7-(4-(((2S,4R)-2-methyl-1-propionyl-1,2,3,4-tetrahydroquinolin-4-yl)amino)benzoyl)-5,6,7,8-tetrahydroimidazo[1,2-a]pyrazin-3-yl)methyl)phenyl)amino)-3,4-dihydroquinolin-1(2H)-yl)propan-1-one] | 0.11 nM
20 | CCC(=O)N1c2ccccc2[C@H](Nc2ccc(CCCC(=O)Nc3ccc(N[C@@H]4C[C@H](C)N(C(=O)CC)c5ccccc54)cc3)cc2)C[C@@H]1C [Compound 5r, N,4-Bis(4-(((2S,4R)-2-methyl-1-propionyl-1,2,3,4-tetrahydroquinolin-4-yl)amino)phenyl)butanamide] | 1.78 nM
